From ChEMBL document CHEMBL3826929, “Discovery and Preclinical Evaluation of BMS-711939, an Oxybenzylglycine Based PPARα Selective Agonist” (ACS Med Chem Lett, 2016)

Key:
Syrian golden hamster [1] = experiment: Decrease in liver triglyceride level in high fat-diet fed syrian golden hamster model of dyslipidemia at 10 mg/kg administered qd through oral gavage measured after 21 days by FPLC analysis relative to control; assay type: functional, Mesocricetus auratus; parameters: scale not given: the % may be the effect or the level left
Syrian golden hamster [2] = experiment: Decrease in liver triglyceride level in high fat-diet fed syrian golden hamster model of dyslipidemia at 3 mg/kg administered qd through oral gavage measured after 21 days by FPLC analysis relative to control; assay type: functional, Mesocricetus auratus; parameters: scale not given: the % may be the effect or the level left
Syrian golden hamster [3] = experiment: Decrease in liver cholesterol level in high fat-diet fed syrian golden hamster model of dyslipidemia at 10 mg/kg administered qd through oral gavage measured after 21 days by FPLC analysis relative to control; assay type: functional, Mesocricetus auratus; parameters: scale not given: the % may be the effect or the level left
Syrian golden hamster [4] = experiment: Decrease in plasma LDL cholesterol level in high fat-diet fed syrian golden hamster model of dyslipidemia at 3 mg/kg administered qd through oral gavage measured after 21 days by FPLC analysis relative to control; assay type: functional, Mesocricetus auratus; parameters: scale not given: the % may be the effect or the level left
Syrian golden hamster [5] = experiment: Decrease in plasma LDL cholesterol level in high fat-diet fed syrian golden hamster model of dyslipidemia at 1 mg/kg administered qd through oral gavage measured after 21 days by FPLC analysis relative to control; assay type: functional, Mesocricetus auratus; parameters: scale not given: the % may be the effect or the level left
Syrian golden hamster [6] = experiment: Decrease in plasma triglyceride level in high fat-diet fed syrian golden hamster model of dyslipidemia at 3 mg/kg administered qd through oral gavage measured after 21 days by FPLC analysis relative to control; assay type: functional, Mesocricetus auratus; parameters: scale not given: the % may be the effect or the level left
Syrian golden hamster [7] = experiment: Decrease in plasma triglyceride level in high fat-diet fed syrian golden hamster model of dyslipidemia at 1 mg/kg administered qd through oral gavage measured after 21 days by FPLC analysis relative to control; assay type: functional, Mesocricetus auratus; parameters: scale not given: the % may be the effect or the level left
HEK293 = experiment: Selectivity ratio of EC50 for Gal4-tagged human PPAR-gamma expressed in HEK cells to EC50 for Gal4-tagged human PPAR-alpha expressed in HEK cells; assay type: cell-based
[8] = biological target: T1, Peroxisome proliferator-activated receptor gamma (Homo sapiens, UniProt P37231); experiment: Binding affinity to human GST-tagged PPAR-gamma LBD expressed in Escherichia coli BL21 after 30 mins in presence of fluorescein ligand FLA-A by fluorescence polarization assay
T1 sequence (P37231 whole entry): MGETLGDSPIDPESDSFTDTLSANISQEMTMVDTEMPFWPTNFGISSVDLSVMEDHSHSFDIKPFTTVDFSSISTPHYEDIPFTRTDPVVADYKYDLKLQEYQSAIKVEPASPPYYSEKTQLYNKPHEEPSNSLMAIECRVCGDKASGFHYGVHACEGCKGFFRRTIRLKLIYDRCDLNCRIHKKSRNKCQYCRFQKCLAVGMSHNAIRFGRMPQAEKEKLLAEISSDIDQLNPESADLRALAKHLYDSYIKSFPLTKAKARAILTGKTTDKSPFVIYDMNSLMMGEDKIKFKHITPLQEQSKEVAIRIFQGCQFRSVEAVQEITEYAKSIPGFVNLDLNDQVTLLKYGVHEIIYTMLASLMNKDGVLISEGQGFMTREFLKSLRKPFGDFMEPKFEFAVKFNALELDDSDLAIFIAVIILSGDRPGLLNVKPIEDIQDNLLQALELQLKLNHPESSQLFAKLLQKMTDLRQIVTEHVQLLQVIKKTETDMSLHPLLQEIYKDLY

[9] = Tmax in Balb/c mouse at 10 mg/kg, po; assay type: ADME, organism-based; settings: in vivo
[10] = Tmax in Sprague-Dawley rat at 8 mg/kg, po; assay type: ADME, organism-based; settings: in vivo
[11] = Cmax in cynomolgus monkey at 2 mg/kg, po; assay type: ADME, organism-based, Macaca fascicularis; parameters: dose 2 mg/kg, route oral; settings: in vivo
[12] = AUC (0 to 8 hrs) in dog at 1 mg/kg, iv; assay type: ADME, organism-based, Canis lupus familiaris; parameters: dose 1 mg/kg, time < 8 hr, route intravenous; settings: in vivo
[13] = AUC (0 to 8 hrs) in dog at 2 mg/kg, po; assay type: ADME, organism-based, Canis lupus familiaris; parameters: dose 2 mg/kg, time < 8 hr, route oral; settings: in vivo
[14] = AUC (0 to 8 hrs) in cynomolgus monkey at 1 mg/kg, iv; assay type: ADME, organism-based, Macaca fascicularis; parameters: time < 8 hr, dose 1 mg/kg, route intravenous; settings: in vivo
[15] = Volume of distribution at steady state in dog at 1 mg/kg, iv; assay type: ADME, organism-based, Canis lupus familiaris; settings: in vivo, read-out: Vdss
[16] = Volume of distribution at steady state in cynomolgus monkey at 1 mg/kg, iv; assay type: ADME, organism-based, Macaca fascicularis; settings: in vivo, read-out: Vdss
[17] = Half life in dog at 1 mg/kg, iv; assay type: ADME, organism-based, Canis lupus familiaris; settings: in vivo
[18] = Oral bioavailability in Balb/c mouse at 10 mg/kg; assay type: ADME, organism-based; settings: in vivo
[19] = Oral bioavailability in Sprague-Dawley rat at 8 mg/kg; assay type: ADME, organism-based; settings: in vivo
Glucocorticoid receptor = Glucocorticoid receptor (Homo sapiens, UniProt P04150); experiment: Agonist activity at human GR by transactivation assay
Glucocorticoid receptor, sequence (P04150 whole entry): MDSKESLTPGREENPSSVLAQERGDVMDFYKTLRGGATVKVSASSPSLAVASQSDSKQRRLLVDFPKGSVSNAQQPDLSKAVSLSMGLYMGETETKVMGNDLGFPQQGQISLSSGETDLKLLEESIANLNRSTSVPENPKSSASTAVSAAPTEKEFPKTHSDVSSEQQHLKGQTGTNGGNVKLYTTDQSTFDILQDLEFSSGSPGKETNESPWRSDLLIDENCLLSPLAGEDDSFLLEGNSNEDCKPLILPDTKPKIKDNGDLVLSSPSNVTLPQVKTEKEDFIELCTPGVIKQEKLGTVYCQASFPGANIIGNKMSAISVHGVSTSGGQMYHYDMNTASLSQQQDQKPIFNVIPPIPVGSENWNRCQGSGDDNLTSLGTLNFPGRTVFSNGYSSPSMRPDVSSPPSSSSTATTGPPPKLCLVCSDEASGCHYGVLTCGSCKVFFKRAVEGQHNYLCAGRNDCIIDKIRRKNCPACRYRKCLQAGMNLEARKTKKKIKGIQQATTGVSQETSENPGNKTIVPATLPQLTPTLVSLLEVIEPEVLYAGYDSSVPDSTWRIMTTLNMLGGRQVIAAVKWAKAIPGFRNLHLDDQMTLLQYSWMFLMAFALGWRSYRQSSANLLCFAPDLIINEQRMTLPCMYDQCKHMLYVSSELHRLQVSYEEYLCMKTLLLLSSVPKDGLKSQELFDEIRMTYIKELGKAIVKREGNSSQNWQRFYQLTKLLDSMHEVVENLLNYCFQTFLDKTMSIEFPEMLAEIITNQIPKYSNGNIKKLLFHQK

[20] = biological target: Peroxisome proliferator-activated receptor delta (Homo sapiens) (UniProt Q03181); experiment: Agonist activity against human PPAR-delta by transactivation assay relative to standard compound
[21] = biological target: Retinoid X receptor (Homo sapiens) (UniProt P28702+P48443+P19793); experiment: Agonist activity at human RXR by transactivation assay relative to standard compound; assay type: protein assay
Retinoid X receptor (Homo sapiens), sequence (P19793 whole entry, looked up): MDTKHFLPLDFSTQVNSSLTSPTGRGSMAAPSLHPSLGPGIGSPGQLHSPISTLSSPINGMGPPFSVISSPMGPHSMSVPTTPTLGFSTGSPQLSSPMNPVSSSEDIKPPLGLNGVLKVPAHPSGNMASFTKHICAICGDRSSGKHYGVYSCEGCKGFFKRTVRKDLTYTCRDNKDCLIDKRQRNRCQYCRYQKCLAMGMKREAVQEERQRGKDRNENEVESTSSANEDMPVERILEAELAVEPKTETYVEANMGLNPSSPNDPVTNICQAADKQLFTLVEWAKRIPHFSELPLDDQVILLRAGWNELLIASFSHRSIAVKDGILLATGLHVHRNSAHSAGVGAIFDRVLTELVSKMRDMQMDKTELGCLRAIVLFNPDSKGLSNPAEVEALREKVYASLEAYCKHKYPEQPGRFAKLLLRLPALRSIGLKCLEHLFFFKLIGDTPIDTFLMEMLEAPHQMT
Retinoid X receptor (Homo sapiens), sequence (P28702 whole entry, looked up): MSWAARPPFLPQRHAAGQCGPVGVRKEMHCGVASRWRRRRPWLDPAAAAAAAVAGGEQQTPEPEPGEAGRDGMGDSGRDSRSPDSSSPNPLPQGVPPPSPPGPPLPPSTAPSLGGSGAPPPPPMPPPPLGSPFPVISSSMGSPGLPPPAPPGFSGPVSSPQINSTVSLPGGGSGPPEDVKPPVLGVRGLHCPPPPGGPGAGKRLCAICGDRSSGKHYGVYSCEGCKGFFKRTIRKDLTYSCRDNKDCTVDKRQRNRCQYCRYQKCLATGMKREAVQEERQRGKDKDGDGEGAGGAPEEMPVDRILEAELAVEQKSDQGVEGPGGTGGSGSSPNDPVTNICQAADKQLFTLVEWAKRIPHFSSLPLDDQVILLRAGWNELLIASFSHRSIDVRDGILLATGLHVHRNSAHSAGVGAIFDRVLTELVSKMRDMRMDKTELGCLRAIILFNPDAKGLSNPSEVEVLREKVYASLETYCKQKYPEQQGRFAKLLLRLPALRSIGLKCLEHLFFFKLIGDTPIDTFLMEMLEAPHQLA
Retinoid X receptor (Homo sapiens), sequence (P48443 whole entry, looked up): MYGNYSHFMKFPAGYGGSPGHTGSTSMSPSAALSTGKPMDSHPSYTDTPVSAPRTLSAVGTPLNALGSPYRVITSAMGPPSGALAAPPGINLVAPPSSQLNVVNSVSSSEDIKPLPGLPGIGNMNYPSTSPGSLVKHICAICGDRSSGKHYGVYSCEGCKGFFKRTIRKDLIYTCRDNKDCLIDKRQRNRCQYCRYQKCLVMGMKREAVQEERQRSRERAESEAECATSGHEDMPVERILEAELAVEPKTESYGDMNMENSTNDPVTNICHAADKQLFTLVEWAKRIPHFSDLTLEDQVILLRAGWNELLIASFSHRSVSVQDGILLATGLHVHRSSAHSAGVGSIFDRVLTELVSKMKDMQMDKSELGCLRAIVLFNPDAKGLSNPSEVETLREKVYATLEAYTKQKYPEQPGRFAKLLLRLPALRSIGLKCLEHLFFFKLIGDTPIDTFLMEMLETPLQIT

[22] = Protein binding in cynomolgus monkey plasma; assay type: ADME, cell-free, Macaca fascicularis; settings: read-out: PPB
Cytochrome P450 2B6 = Cytochrome P450 2B6 (Homo sapiens, UniProt P20813); experiment: Inhibition of CYP2B6 (unknown origin); assay type: ADME
Cytochrome P450 2B6, sequence (P20813 whole entry): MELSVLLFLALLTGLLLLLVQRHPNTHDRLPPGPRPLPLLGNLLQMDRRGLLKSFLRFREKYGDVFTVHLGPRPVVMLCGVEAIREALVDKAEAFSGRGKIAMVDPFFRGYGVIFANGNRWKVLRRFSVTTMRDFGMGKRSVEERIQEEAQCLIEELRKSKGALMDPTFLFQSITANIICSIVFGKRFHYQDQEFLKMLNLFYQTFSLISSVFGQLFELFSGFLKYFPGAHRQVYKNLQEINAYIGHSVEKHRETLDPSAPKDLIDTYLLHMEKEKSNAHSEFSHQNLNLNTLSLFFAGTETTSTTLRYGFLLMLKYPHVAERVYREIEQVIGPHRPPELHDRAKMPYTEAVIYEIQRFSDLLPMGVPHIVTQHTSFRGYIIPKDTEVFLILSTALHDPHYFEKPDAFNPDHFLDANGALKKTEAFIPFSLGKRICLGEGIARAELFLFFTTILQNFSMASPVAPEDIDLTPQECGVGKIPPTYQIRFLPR

Mus musculus [23] = experiment: Increase in ApoA1 level in transgenic mouse expressing human ApoA1 at 50 mg/kg administered qd through oral gavage measured after 10 days relative to vehicle-treated control; assay type: functional
Cytochrome P450 2C19 = Cytochrome P450 2C19 (Homo sapiens, UniProt P33261); experiment: Inhibition of CYP2C19 (unknown origin); assay type: ADME
Cytochrome P450 2C19, sequence (P33261 whole entry): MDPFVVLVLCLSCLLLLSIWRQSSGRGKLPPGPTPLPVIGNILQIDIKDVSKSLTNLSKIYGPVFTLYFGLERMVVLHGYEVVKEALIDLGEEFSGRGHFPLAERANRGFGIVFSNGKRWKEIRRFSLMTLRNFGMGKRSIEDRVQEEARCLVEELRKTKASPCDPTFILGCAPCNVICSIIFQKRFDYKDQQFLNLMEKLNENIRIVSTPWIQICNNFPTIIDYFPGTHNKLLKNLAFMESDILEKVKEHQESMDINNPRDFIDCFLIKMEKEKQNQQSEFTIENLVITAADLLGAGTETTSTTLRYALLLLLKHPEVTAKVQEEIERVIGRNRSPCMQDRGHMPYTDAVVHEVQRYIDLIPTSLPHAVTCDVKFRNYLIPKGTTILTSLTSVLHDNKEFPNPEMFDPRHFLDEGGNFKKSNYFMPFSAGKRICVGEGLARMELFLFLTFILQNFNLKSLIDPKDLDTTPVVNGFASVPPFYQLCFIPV

Cytochrome P450 2D6 [24] = biological target: T2, Cytochrome P450 2D6 (Homo sapiens, UniProt P10635); experiment: Inhibition of CYP2D6 (unknown origin); assay type: ADME
T2 sequence (P10635 whole entry): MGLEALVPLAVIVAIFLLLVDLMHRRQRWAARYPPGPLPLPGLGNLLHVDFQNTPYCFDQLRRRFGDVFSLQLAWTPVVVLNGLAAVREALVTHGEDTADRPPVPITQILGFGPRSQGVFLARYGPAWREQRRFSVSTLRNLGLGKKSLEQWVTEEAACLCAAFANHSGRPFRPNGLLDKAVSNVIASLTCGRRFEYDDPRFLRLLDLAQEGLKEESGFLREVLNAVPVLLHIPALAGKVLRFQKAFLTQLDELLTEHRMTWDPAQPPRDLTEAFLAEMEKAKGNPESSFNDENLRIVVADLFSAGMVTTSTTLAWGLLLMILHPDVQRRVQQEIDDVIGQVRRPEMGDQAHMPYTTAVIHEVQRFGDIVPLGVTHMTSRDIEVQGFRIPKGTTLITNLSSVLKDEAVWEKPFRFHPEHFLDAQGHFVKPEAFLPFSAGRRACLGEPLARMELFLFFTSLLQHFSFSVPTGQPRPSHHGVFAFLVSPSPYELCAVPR

[25] = biological target: Nuclear receptor subfamily 1 group I member 2 (Homo sapiens, UniProt O75469); experiment: Activation of PXR (unknown origin); assay type: ADME
Nuclear receptor subfamily 1 group I member 2, sequence (O75469 whole entry): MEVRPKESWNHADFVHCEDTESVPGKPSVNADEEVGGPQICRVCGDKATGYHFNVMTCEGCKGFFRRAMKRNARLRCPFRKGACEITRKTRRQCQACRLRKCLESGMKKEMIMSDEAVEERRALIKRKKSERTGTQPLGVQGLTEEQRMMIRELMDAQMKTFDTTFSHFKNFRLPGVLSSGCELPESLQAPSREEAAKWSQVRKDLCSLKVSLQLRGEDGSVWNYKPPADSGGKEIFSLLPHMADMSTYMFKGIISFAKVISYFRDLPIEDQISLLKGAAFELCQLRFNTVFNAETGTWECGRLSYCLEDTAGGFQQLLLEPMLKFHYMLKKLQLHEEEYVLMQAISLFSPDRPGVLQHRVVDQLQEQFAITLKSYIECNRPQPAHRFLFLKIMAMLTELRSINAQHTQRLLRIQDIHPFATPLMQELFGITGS

Cytochrome P450 2D6 [26] = biological target: T2, Cytochrome P450 2D6; experiment: Inhibition of CYP2D6 in human TC5 cells; assay type: ADME, cell-based
Cytochrome P450 3A4 = Cytochrome P450 3A4 (Homo sapiens, UniProt P08684); experiment: Inhibition of CYP3A4 in human TC5 cells; assay type: ADME, cell-based
Cytochrome P450 3A4, sequence (P08684 whole entry): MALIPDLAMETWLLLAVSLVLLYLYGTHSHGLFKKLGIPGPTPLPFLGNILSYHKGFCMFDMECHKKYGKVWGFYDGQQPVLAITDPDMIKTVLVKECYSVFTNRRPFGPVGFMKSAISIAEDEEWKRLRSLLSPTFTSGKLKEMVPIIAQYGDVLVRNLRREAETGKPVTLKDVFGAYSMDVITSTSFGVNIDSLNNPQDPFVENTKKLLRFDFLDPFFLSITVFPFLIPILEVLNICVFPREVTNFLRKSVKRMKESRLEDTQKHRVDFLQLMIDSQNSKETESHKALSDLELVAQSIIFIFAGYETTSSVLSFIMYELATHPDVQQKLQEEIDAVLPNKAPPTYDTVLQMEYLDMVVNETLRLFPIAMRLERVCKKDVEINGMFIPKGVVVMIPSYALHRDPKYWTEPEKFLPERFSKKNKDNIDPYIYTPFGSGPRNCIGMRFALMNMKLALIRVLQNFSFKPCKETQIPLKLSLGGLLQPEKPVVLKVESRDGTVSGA

hERG (KCNH2) = hERG (KCNH2) (Homo sapiens, UniProt Q12809); experiment: Inhibition of human ERG at 30 uM by patch-clamp method
[27] = Cardiovascular toxicity in purkinje fiber (unknown origin) assessed as change in action potential duration at 90% repolarization at 30 uM
Salmonella typhimurium = experiment: Genotoxicity in Salmonella typhimurium TA98 up to 5000 ug by Ames test; assay type: toxicity, organism-based; settings: salmonella enterica subsp. enterica serovar typhimurium
Rhesus monkey = experiment: Cardiovascular toxicity in monkey assessed as change in hemodynamic effect up to 20 mg/kg administered as single dose by telemetry test; assay type: organism-based, Macaca mulatta; settings: in vivo
Mus musculus [28] = experiment: Decrease in triglyceride level in transgenic mouse expressing human ApoA1 at 3 mg/kg administered qd through oral gavage measured after 10 days relative to vehicle control; assay type: functional; parameters: scale not given: the % may be the effect or the level left
Mus musculus [29] = experiment: Increase in HDL cholesterol level in transgenic mouse expressing human ApoA1 at 3 mg/kg administered qd through oral gavage measured after 10 days relative to vehicle control; assay type: functional
Mus musculus [30] = experiment: Increase in HDL cholesterol level in transgenic mouse expressing human ApoA1 at 10 mg/kg administered qd through oral gavage measured after 10 days relative to vehicle control; assay type: functional
Mus musculus [31] = experiment: Increase in HDL cholesterol level in transgenic mouse expressing human ApoA1 at 50 mg/kg administered qd through oral gavage measured after 10 days relative to vehicle control; assay type: functional

IC50 [8]: > 98.4 µM
Tmax [9]: 15 min
Tmax [10]: 18 min
Cmax [11]: 1400 nM
AUC(0-t) at 8 h [12]: 3.5 µM·h
AUC(0-t) at 8 h [13]: 4 µM·h
AUC(0-t) at 8 h [14]: 7.5 µM·h
Vd [15]: 2.1 L/kg
Vd [16]: 3.9 L/kg
half-life [17]: 330 min
bioavailability [18]: 66%
bioavailability [19]: 100%
EC50 (Glucocorticoid receptor): > 25 µM
Efficacy [20]: < 15%
Efficacy [21]: < 15%
fraction unbound [22]: 0.01
IC50 (Cytochrome P450 2B6): > 40 µM
IC50 (Cytochrome P450 2C19): > 40 µM
IC50 (Cytochrome P450 2D6 [24]): > 40 µM
EC60 [25]: > 50 µM
Compound: COC(=O)N(CC(=O)O)Cc1cc(OCc2nc(-c3ccc(Cl)cc3)oc2C)ccc1F
Activity (Syrian golden hamster [1]): 48%
Activity (Syrian golden hamster [2]): 39.8%
Activity (Syrian golden hamster [3]): 67.5%
Activity (Syrian golden hamster [4]): 61%
Activity (Syrian golden hamster [5]): 24%
Activity (Syrian golden hamster [6]): 74%
Activity (Syrian golden hamster [7]): 50%
Ratio EC50 (HEK293): 1130
Activity (Mus musculus [23]): 747%
IC50 (Cytochrome P450 2D6 [26]): > 150 µM
IC50 (Cytochrome P450 3A4): > 150 µM
inhibition at 30 µM (hERG (KCNH2)): 4%
Activity [27]: -5.4%
Activity (Salmonella typhimurium): Non-toxic
Activity (Rhesus monkey): Non-toxic
Activity (Mus musculus [28]): 14.2%
Activity (Mus musculus [29]): 16%
Activity (Mus musculus [30]): 74%
Activity (Mus musculus [31]): 109%
